Data as given in the kinase profiling compilation of Christmann-Franck et al. (2016).

Experiments:
Assay in all cases: radiometric filter-binding kinase assay, Kinase HotSpot
Conditions in all cases: compound 0.5 µM; ATP 10 µM
CDK9 CCNT1 (human) = CDK9 CCNT1 (human) (UniProt P50750+O60563)
STK33 (human) = STK33 (human) (UniProt Q9BYT3)
AURKB (human) = AURKB (human) (UniProt Q96GD4)
IGF1R (human) = IGF1R (human) (UniProt P08069)
MYO3B (human) = MYO3B (human) (UniProt Q8WXR4)
AXL (human) = AXL (human) (UniProt P30530)
PLK3 (human) = PLK3 (human) (UniProt Q9H4B4)
TAOK3 (human) = TAOK3 (human) (UniProt Q9H2K8)
CLK1 (human) = CLK1 (human) (UniProt P49759)
RPS6KB2 (human) = RPS6KB2 (human) (UniProt Q9UBS0)
ZAP70 (human) = ZAP70 (human) (UniProt P43403)
TXK (human) = TXK (human) (UniProt P42681)
NTRK2 (human) = NTRK2 (human) (UniProt Q16620)
PLK2 (human) = PLK2 (human) (UniProt Q9NYY3)
NLK (human) = NLK (human) (UniProt Q9UBE8)
Sequence of NLK (human) (Q9UBE8 whole entry, looked up): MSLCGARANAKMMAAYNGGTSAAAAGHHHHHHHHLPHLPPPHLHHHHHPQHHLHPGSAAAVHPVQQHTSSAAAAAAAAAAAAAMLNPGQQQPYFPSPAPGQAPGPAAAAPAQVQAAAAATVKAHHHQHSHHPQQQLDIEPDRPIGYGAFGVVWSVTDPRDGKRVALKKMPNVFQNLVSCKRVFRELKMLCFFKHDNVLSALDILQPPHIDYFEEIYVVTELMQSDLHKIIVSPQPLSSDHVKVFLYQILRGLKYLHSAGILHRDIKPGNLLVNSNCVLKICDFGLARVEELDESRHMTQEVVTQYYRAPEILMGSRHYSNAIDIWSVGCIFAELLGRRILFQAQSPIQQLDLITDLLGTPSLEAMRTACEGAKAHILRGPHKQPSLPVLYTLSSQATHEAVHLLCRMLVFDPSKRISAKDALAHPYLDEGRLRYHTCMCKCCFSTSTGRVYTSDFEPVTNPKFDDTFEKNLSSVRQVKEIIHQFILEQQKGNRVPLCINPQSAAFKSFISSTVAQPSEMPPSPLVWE

WNK2 (human) = WNK2 (human) (UniProt Q9Y3S1)
[1] = biological target: TYK2 JH1 catalytic (human) (UniProt P29597)
Sequence of TYK2 JH1 catalytic (human) (P29597 whole entry, looked up): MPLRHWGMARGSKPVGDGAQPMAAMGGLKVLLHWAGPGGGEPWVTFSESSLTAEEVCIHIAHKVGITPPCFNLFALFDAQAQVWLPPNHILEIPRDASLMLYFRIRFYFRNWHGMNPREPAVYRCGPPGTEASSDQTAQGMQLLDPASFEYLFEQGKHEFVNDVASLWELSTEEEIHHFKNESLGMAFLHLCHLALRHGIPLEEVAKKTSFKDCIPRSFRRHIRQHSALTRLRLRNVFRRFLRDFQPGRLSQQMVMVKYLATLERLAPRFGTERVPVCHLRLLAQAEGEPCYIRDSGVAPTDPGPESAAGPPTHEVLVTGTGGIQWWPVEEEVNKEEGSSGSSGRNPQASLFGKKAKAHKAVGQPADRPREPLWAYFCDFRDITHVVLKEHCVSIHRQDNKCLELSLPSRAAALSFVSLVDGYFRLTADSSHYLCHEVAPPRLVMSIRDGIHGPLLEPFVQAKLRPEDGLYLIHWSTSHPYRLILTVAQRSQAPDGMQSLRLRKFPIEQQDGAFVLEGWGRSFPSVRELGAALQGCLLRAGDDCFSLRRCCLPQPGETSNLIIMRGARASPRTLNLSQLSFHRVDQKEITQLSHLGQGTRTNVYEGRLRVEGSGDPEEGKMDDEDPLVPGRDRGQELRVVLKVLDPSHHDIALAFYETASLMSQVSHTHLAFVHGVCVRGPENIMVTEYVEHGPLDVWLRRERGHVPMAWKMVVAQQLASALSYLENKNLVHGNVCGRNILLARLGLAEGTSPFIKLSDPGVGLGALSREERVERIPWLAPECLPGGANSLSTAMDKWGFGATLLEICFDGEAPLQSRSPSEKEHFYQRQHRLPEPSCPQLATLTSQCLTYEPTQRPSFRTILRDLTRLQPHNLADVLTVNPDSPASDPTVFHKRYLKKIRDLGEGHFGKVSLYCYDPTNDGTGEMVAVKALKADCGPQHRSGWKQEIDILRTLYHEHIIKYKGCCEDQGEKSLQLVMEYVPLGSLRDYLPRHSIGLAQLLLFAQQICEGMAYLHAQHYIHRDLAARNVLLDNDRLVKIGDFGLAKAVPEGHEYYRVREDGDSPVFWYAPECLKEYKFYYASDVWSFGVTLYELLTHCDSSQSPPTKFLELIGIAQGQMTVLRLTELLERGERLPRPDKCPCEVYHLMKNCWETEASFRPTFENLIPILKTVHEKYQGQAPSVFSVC

SGK3 (human) = SGK3 (human) (UniProt Q96BR1)
CDK9 CCNK (human) = CDK9 CCNK (human) (UniProt O75909+P50750)
GSG2 (human) = GSG2 (human) (UniProt Q8TF76)
STK4 (human) = STK4 (human) (UniProt Q13043)
TEK (human) = TEK (human) (UniProt Q02763)
HIPK2 (human) = HIPK2 (human) (UniProt Q9H2X6)
FLT1 (human) = FLT1 (human) (UniProt P17948)
CAMK1G (human) = CAMK1G (human) (UniProt Q96NX5)
PAK1 (human) = PAK1 (human) (UniProt Q13153)
STK38 (human) = STK38 (human) (UniProt Q15208)
MAP3K9 (human) = MAP3K9 (human) (UniProt P80192)
YES1 (human) = YES1 (human) (UniProt P07947)
FLT3 (human) = FLT3 (human) (UniProt P36888)
CSNK1E (human) = CSNK1E (human) (UniProt P49674)
MAPKAPK2 (human) = MAPKAPK2 (human) (UniProt P49137)
MAP3K14 (human) = MAP3K14 (human) (UniProt Q99558)
MAP3K5 (human) = MAP3K5 (human) (UniProt Q99683)
DAPK1 (human) = DAPK1 (human) (UniProt P53355)
SYK (human) = SYK (human) (UniProt P43405)
SRPK2 (human) = SRPK2 (human) (UniProt P78362)
MAP3K3 (human) = MAP3K3 (human) (UniProt Q99759)
PTK2B (human) = PTK2B (human) (UniProt Q14289)
HIPK4 (human) = HIPK4 (human) (UniProt Q8NE63)
Sequence of HIPK4 (human) (Q8NE63 whole entry, looked up): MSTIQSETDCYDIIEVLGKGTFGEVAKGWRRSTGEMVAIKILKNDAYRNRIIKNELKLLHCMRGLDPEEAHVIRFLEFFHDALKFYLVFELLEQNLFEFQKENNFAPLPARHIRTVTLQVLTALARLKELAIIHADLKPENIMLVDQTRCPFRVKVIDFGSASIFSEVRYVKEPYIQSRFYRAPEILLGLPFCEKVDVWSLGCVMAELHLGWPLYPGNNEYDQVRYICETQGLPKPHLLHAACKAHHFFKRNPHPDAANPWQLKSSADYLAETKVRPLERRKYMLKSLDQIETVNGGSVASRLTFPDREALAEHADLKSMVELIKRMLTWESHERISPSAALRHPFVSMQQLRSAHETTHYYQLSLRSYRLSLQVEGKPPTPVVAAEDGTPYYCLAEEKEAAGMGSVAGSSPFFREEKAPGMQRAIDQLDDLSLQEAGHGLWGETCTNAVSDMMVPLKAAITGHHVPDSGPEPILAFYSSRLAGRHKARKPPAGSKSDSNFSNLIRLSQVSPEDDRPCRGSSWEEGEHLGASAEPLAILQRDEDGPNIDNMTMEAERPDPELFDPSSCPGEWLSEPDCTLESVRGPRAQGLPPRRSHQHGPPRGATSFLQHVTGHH

ITK (human) = ITK (human) (UniProt Q08881)
PRKCE (human) = PRKCE (human) (UniProt Q02156)

Sequence of MYO3B (human) (Q8WXR4 whole entry, looked up): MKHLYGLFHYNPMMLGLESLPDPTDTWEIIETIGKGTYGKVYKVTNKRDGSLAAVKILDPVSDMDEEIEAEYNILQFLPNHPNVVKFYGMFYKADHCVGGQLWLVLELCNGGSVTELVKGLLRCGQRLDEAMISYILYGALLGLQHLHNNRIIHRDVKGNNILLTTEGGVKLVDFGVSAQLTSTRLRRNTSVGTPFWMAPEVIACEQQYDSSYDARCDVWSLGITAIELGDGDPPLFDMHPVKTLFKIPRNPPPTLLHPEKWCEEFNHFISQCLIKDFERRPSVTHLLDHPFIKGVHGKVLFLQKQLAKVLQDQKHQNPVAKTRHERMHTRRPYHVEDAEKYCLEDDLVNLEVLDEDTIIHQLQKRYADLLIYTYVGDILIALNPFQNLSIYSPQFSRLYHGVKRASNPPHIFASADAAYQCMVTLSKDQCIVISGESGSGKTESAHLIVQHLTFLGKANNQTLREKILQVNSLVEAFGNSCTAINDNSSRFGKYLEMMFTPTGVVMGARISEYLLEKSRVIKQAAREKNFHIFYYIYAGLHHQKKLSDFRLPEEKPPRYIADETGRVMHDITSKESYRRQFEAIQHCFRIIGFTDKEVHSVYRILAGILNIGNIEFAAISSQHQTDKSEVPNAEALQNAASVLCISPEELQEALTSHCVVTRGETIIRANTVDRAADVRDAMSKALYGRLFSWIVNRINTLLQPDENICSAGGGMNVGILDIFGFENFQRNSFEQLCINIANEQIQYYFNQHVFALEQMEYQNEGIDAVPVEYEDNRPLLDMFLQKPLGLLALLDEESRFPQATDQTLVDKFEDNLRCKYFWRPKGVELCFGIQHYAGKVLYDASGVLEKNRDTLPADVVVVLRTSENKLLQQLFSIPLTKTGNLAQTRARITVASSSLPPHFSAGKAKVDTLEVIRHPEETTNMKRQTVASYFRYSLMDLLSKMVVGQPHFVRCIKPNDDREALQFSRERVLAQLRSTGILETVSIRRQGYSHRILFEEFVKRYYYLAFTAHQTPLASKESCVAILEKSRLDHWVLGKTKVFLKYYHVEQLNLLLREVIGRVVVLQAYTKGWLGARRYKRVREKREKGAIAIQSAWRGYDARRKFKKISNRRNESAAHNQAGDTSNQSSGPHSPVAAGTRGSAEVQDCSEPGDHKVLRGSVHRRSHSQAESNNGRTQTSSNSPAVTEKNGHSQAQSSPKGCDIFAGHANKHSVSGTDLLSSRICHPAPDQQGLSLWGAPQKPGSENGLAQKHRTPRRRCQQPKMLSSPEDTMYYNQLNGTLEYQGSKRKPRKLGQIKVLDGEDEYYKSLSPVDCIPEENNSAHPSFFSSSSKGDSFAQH
Sequence of IGF1R (human) (P08069 whole entry, looked up): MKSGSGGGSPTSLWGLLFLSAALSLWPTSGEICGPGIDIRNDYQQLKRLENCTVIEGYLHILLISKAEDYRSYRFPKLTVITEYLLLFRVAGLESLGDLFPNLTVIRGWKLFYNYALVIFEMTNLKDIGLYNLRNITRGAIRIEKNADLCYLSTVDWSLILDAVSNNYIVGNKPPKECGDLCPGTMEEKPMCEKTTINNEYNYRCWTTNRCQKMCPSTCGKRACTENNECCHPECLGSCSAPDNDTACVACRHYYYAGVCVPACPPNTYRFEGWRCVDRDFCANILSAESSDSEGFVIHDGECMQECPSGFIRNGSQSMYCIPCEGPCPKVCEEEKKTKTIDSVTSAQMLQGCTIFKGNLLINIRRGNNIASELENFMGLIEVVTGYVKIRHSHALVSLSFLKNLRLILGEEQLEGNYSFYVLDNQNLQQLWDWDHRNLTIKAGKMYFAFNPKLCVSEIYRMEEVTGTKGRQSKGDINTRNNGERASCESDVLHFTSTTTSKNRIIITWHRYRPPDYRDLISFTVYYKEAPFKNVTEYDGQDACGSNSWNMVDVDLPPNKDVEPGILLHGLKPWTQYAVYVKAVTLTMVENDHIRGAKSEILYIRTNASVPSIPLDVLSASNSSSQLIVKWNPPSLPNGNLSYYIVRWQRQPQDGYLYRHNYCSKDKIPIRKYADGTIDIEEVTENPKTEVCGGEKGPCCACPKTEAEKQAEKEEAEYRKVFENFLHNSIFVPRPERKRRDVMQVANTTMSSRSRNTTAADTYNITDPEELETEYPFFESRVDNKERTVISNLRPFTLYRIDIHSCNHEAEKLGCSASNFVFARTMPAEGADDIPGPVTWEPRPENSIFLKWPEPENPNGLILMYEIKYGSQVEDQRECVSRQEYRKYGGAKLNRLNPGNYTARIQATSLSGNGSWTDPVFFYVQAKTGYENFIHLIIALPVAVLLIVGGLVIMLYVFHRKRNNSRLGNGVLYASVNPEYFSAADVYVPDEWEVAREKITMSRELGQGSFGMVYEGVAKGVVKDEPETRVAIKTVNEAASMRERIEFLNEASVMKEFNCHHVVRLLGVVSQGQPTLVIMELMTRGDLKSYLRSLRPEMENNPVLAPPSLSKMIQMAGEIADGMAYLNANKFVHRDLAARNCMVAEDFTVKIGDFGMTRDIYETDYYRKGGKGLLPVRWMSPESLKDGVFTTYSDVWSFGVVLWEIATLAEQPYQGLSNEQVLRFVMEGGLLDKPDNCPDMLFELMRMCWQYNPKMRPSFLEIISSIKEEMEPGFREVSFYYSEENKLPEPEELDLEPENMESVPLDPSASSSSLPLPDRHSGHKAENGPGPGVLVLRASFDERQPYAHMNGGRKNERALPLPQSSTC

CC(C)N(CCC(=O)c1ccc2ccccc2c1)Cc1ccccc1
residual activity (CDK9 CCNT1 (human)): 96.4%
residual activity (STK33 (human)): 104%
residual activity (AURKB (human)): 101%
residual activity (IGF1R (human)): 107%
residual activity (MYO3B (human)): 93.5%
residual activity (AXL (human)): 108%
residual activity (PLK3 (human)): 105%
residual activity (TAOK3 (human)): 87.8%
residual activity (CLK1 (human)): 109%
residual activity (RPS6KB2 (human)): 94.3%
residual activity (ZAP70 (human)): 93.7%
residual activity (TXK (human)): 97.1%
residual activity (NTRK2 (human)): 92.1%
residual activity (PLK2 (human)): 97%
residual activity (NLK (human)): 94.8%
residual activity (WNK2 (human)): 107%
residual activity [1]: 103%
residual activity (SGK3 (human)): 106%
residual activity (CDK9 CCNK (human)): 99.5%
residual activity (GSG2 (human)): 95.6%
residual activity (STK4 (human)): 92.5%
residual activity (TEK (human)): 96.3%
residual activity (HIPK2 (human)): 107%
residual activity (FLT1 (human)): 86%
residual activity (CAMK1G (human)): 95.1%
residual activity (PAK1 (human)): 98.3%
residual activity (STK38 (human)): 100%
residual activity (MAP3K9 (human)): 104%
residual activity (YES1 (human)): 100%
residual activity (FLT3 (human)): 97.5%
residual activity (CSNK1E (human)): 96.1%
residual activity (MAPKAPK2 (human)): 99%
residual activity (MAP3K14 (human)): 117%
residual activity (MAP3K5 (human)): 103%
residual activity (DAPK1 (human)): 97.9%
residual activity (SYK (human)): 101%
residual activity (SRPK2 (human)): 99.1%
residual activity (MAP3K3 (human)): 102%
residual activity (PTK2B (human)): 106%
residual activity (HIPK4 (human)): 107%
residual activity (ITK (human)): 89.9%
residual activity (PRKCE (human)): 95%
